From ChEMBL document CHEMBL4622904, “The discovery of azetidine-piperazine di-amides as potent, selective and reversible monoacylglycerol lipase (MAGL) inhibitors” (Bioorg Med Chem Lett, 2020)
Calls of active or inactive are those of the source. No cut-off for these calls is given here.

What was measured:
[1] = Oral bioavailability in rat at 10 mg/kg; format: ADME, organism-based; conditions: in vivo
[2] = Tmax in rat at 10 mg/kg, po; format: ADME, organism-based; conditions: in vivo
[3] = Cmax in rat at 10 mg/kg, po; format: ADME, organism-based; set-up: dose 10 mg/kg, route oral; conditions: in vivo
[4] = system: Rattus norvegicus; experiment: Reversal of complete freund's adjuvant-induced thermal hyperalgesia in Sprague-Dawley rat model assessed as increase in paw withdrawal latency time at 30 mg/kg, po pre-exposed to thermal stimuli followed by CFA injection and subsequent compound administration; format: functional, organism-based; conditions: TDE = time-dependent effect
[5] = system: Rattus norvegicus; experiment: Reversal of complete freund's adjuvant-induced thermal hyperalgesia in Sprague-Dawley rat model assessed as increase in paw withdrawal latency time at 1 to 30 mg/kg, po pre-exposed to thermal stimuli followed by CFA injection and subsequent compound administration relative to control; format: functional
[6] = system: Rattus norvegicus; experiment: Reversal of complete freund's adjuvant-induced thermal hyperalgesia in Sprague-Dawley rat model assessed as increase in paw withdrawal latency time at 1 to 30 mg/kg, po pre-exposed to thermal stimuli followed by CFA injection and subsequent compound administration measured after 30 to 180 mins; format: functional, organism-based
[7] = system: Rattus norvegicus; experiment: Reversal of complete freund's adjuvant-induced thermal hyperalgesia in po dosed Sprague-Dawley rat model assessed as increase in paw withdrawal latency time pre-exposed to thermal stimuli followed by CFA injection and subsequent compound administration; format: functional
[8] = system: Rattus norvegicus; experiment: Reversal of complete freund's adjuvant-induced thermal hyperalgesia in Sprague-Dawley rat model assessed as increase in paw withdrawal latency time at 1 to 30 mg/kg, po pre-exposed to thermal stimuli followed by CFA injection and subsequent compound administration; format: functional
[9] = Drug concentration in blood of Sprague-Dawley rat at 1 mg/kg, po; format: ADME, organism-based; conditions: in vivo, read-out: Ct
[10] = Drug concentration in blood of Sprague-Dawley rat at 3 mg/kg, po; format: ADME, organism-based; conditions: in vivo, read-out: Ct
[11] = Drug concentration in blood of Sprague-Dawley rat at 10 mg/kg, po; format: ADME, organism-based; conditions: in vivo, read-out: Ct
[12] = Drug concentration in blood of Sprague-Dawley rat at 30 mg/kg, po; format: ADME, organism-based; conditions: in vivo, read-out: Ct
[13] = Drug concentration in brain of Sprague-Dawley rat at 1 mg/kg, po; format: ADME, organism-based; conditions: in vivo, read-out: Ct
[14] = Drug concentration in brain of Sprague-Dawley rat at 3 mg/kg, po; format: ADME, organism-based; conditions: in vivo, read-out: Ct
[15] = Drug concentration in brain of Sprague-Dawley rat at 10 mg/kg, po; format: ADME, organism-based; conditions: in vivo, read-out: Ct
[16] = Drug concentration in brain of Sprague-Dawley rat at 30 mg/kg, po; format: ADME, organism-based; conditions: in vivo, read-out: Ct
[17] = system: Rattus norvegicus; experiment: Effect on 2-AG level in brain of Sprague-Dawley rat 1 mg/kg, po (reference value: 11.96 nmol/g); format: functional
[18] = system: Rattus norvegicus; experiment: Effect on 2-AG level in brain of Sprague-Dawley rat 3 mg/kg, po (reference value: 11.96 nmol/g); format: functional
[19] = system: Rattus norvegicus; experiment: Effect on 2-AG level in brain of Sprague-Dawley rat 10 mg/kg, po (reference value: 11.96 nmol/g); format: functional
[20] = system: Rattus norvegicus; experiment: Effect on 2-AG level in brain of Sprague-Dawley rat 30 mg/kg, po (reference value: 11.96 nmol/g); format: functional
[21] = biological target: T1, Fatty-acid amide hydrolase 1 (Homo sapiens, UniProt O00519); experiment: Inhibition of FAAH (unknown origin)
T1 sequence (O00519 whole entry): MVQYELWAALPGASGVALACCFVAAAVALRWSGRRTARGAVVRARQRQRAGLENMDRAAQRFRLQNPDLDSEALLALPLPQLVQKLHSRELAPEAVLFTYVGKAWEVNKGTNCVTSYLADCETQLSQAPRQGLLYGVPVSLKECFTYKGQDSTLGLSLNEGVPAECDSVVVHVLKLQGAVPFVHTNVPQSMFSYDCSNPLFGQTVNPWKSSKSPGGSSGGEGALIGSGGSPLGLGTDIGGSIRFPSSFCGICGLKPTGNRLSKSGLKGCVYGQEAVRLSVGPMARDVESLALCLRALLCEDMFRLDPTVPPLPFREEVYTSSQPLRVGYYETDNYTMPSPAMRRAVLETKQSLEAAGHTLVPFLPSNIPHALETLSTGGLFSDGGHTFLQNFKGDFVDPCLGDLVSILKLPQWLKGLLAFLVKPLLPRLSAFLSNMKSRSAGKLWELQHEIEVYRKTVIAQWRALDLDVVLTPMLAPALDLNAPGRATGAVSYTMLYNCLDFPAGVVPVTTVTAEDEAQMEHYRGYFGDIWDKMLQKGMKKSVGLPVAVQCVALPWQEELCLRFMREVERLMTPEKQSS

[22] = biological target: Cannabinoid receptor 1 (Homo sapiens, UniProt P21554); experiment: Binding affinity to CB1 receptor (unknown origin); format: ADME
Cannabinoid receptor 1, sequence (P21554 whole entry): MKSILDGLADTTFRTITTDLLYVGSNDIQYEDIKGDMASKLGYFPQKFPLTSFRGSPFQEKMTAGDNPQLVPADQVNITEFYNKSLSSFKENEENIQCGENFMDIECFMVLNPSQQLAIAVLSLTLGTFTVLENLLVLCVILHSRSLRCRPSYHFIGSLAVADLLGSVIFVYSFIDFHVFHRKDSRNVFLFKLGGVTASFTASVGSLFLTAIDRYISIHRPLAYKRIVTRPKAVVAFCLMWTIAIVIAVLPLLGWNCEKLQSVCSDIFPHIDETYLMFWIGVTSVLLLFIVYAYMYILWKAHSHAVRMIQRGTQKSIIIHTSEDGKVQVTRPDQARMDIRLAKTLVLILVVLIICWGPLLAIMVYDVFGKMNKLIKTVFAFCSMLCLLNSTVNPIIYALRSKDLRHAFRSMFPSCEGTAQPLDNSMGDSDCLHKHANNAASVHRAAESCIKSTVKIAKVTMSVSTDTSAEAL

[23] = biological target: Cannabinoid receptor 2 (Homo sapiens, UniProt P34972); experiment: Binding affinity to CB2 receptor (unknown origin); format: ADME
Cannabinoid receptor 2, sequence (P34972 whole entry): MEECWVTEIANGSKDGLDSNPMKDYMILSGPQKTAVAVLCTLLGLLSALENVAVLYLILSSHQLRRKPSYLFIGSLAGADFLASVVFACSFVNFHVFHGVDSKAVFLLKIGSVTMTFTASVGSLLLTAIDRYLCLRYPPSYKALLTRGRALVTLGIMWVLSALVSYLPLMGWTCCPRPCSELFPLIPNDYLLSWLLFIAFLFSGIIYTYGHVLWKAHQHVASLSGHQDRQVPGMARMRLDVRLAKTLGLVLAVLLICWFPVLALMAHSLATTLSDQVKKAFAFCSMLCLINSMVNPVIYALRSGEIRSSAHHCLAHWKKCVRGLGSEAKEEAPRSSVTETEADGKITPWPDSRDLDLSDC

[24] = biological target: Tryptase (Homo sapiens) (UniProt Q9BZJ3+Q15661+Q9NRR2); experiment: Inhibition of tryptase (unknown origin) at 10 uM relative to control; format: protein assay
[25] = organism: Homo sapiens; experiment: Inhibition of elastase (unknown origin) at 10 uM relative to control
[26] = biological target: Plasminogen (Homo sapiens) (UniProt P00747); experiment: Inhibition of plasmin (unknown origin) at 10 uM relative to control
Plasminogen (Homo sapiens), sequence (P00747 97-580 limits assumed): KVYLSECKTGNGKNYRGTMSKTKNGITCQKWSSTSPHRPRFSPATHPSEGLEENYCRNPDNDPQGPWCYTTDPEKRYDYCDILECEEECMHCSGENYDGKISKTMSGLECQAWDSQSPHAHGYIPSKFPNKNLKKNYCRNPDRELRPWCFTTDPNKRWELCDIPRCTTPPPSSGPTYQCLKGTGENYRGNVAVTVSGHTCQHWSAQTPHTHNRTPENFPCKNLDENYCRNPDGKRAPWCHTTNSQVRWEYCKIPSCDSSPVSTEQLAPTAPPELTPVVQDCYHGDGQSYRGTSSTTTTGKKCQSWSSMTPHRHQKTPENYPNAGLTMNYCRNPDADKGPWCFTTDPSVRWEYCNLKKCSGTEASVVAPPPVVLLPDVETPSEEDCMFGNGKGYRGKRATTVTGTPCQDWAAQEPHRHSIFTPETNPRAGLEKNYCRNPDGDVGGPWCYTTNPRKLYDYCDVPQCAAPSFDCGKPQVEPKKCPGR
Plasminogen (Homo sapiens), sequence (P00747 581-810 limits assumed): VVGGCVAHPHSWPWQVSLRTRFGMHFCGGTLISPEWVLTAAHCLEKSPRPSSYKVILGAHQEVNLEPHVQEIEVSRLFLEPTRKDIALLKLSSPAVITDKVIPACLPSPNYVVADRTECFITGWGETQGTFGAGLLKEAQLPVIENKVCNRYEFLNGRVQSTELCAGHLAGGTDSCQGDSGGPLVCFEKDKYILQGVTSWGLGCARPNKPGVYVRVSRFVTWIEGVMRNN

[27] = biological target: Chymotrypsin (Homo sapiens) (UniProt Q99895+P17538+P40313+Q6GPI1); experiment: Inhibition of chymotrypsin (unknown origin) at 10 uM relative to control; format: protein assay
[28] = biological target: Tissue-type plasminogen activator (Homo sapiens) (UniProt P00750); experiment: Inhibition of TPA (unknown origin) at 10 uM relative to control
Tissue-type plasminogen activator (Homo sapiens), sequence (P00750 36-562 limits assumed): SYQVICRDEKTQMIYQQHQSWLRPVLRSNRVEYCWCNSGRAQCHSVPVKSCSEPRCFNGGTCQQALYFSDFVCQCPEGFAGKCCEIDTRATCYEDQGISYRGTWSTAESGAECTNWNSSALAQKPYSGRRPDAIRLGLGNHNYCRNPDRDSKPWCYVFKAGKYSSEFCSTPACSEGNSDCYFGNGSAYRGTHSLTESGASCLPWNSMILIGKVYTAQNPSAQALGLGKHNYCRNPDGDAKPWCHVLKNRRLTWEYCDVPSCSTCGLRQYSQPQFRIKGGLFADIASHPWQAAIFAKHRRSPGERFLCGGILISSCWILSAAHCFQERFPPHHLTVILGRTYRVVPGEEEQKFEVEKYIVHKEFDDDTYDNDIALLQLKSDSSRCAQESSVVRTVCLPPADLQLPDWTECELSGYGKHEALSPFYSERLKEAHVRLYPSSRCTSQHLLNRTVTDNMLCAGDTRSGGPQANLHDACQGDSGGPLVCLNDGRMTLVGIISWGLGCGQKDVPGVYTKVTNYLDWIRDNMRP

bioavailability [1]: 45%
Tmax [2]: 1.75 h
Cmax [3]: 710 ng/mL
concentration [9]: 24.9 nM
concentration [10]: 135 nM
concentration [11]: 519 nM
concentration [12]: 3070 nM
concentration [13]: 142 nM
concentration [14]: 339 nM
concentration [15]: 668 nM
concentration [16]: 3540 nM
IC50 [21]: 4 µM
IC50 [22]: > 10 µM
IC50 [23]: > 10 µM
inhibition [24]: 2%
inhibition [25]: 4%
inhibition [26]: 4%
inhibition [27]: -3%
inhibition [28]: 6%
Compound: O=C(c1ccc2c(ccn2-c2ccc(F)cc2)c1)N1CC(N2CCN(C(=O)c3nccs3)CC2)C1
Activity [4]: Tde
Activity [5]: 100%
Activity [6]: Active
ED50 [7]: 3 mg/kg
Time [8]: 100 min
Activity [17]: 19.28 nmol/g
Activity [18]: 33.01 nmol/g
Activity [19]: 46.43 nmol/g
Activity [20]: 108.4 nmol/g
